Among the data in BindingDB's records for doi:10.1021/bi990174x (University of Queensland, 1999) are Ki values, retold here.

The target of this test is T1, Dimer of Gag-Pol polyprotein [501-599,Q508K,L534I,L564I,C568A,C596A] (Human immunodeficiency virus 1, UniProt P03367, C568A/C596A/L534I/L564I/Q508K).
T1 construct: 501-599
Kind of test: Protease Inhibition Assay. The following applies: pH 6.5; 37 °C.

By Ki is commonly meant the dissociation constant of the complex between target and ligand, obtained from inhibition or displacement. A higher Ki goes with weaker binding.

In the case of `CCC(=O)N[C@H](C(=O)N[C@@H](Cc1ccc(O)cc1)[C@H](O)CN[C@H]1Cc2ccc(cc2)OCCCNC(=O)[C@H](C(C)CC)NC1=O)C(C)C` (stereo partly drawn) [(2S)-N-[(2S,3R)-4-{[(8S,11S)-8-[(2S)-butan-2-yl]-7,10-dioxo-2-oxa-6,9-diazabicyclo[11.2.2]heptadeca-1(15),13,16-trien-11-yl]amino}-3-hydroxy-1-(4-hydroxyphenyl)butan-2-yl]-3-methyl-2-propanamidobutanamide], the inhibition constant Ki was 3 nM.
